The target in experiment [1] is T1, CaSR (Homo sapiens, UniProt P41180).
T1 sequence (P41180 20-536 limits assumed): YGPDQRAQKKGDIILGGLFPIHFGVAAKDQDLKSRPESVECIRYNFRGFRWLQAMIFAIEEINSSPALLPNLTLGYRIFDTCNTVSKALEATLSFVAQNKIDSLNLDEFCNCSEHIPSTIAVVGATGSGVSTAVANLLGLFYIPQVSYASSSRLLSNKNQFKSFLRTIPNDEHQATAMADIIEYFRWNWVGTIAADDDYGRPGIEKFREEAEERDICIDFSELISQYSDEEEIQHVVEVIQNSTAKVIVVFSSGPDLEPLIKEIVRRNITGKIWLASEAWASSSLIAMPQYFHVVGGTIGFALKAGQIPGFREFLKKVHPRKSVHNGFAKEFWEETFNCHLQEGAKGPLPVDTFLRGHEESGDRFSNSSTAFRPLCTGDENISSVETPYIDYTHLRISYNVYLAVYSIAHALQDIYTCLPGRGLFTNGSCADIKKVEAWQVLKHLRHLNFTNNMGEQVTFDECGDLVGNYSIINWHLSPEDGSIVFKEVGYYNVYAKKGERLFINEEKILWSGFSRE
As to conditions: patients; cited from earlier work.

In experiment [2] the target is T1, CaSR. The experiment is described as follows: cAMP accumulation assay in HEK-CaSR cells. It is filed as cell-based. The following applies: 3 mM Ca^2+; GPR64ΔNTF-transfected HEK-CaSR cells (Fig. 7C).
In experiment [3] the target is T1, CaSR. The experiment is described as follows: Intracellular calcium mobilization assay in HEK-CaSR cells. It counts as cell-based. As to conditions: for Maximal response of Ca^2+ (intracellular Ca^2+): normalized to 7.49 mM Ca^2+ + vehicle in pcDNA3.1 cells. On the technique in general: A change in cytosolic calcium serves as a functional read-out for many receptors and channels.

Experiment [4] has as its system human parathyroid adenoma cells. In words: PTH secretion from freshly isolated parathyroid adenoma cells. It counts as cell-based. As to conditions: increasing concentrations of Ca^2+, 30 min at 37°C; normalized to vehicle in 0.5 mM Ca^2+; representative of five independent experiments.
Setting [5] is: full-length GPR64-transfected HEK-CaSR cells, vehicle, mean ± SE.

Consider 2 molecules from PMC7211037 (Journal of bone and mineral research : the official journal …, 2016).

Turning to `C[C@@H](NCCCc1cccc(C(F)(F)F)c1)c1cccc2ccccc12` [cinacalcet], the “Serum Ca^2+ normalization (in words)” value in experiment [1] is “normalize the serum Ca^2+ in a significant percentage of patients”.
With `[Ca+2].[Cl-].[Cl-]` [Ca^2+, calcium chloride], the “cAMP level with Ca^2+ (in words)” value in experiment [2] is recorded as “reduced this effect, the cAMP level was still higher than that of cells transfected with empty vector in normocalcemic conditions”. For the same molecule, in experiment [3] (setting [5]), the “Hill slope of Ca^2+ (intracellular Ca^2+)” value turned out to be 2.915 ± 0.159, the “pEC50 of Ca^2+ (intracellular Ca^2+)” value was found to be 3.566 ± 0.010 and the “Maximal response of Ca^2+ (intracellular Ca^2+)” value turned out to be 101.70 ± 0.762%. For the same molecule, the “Maximal response of Ca^2+ (intracellular Ca^2+)” value in experiment [3] (pcDNA3.1-transfected HEK-CaSR cells, vehicle, mean ± SE) worked out at 101.5 ± 1.177%. For the same molecule, the “Intracellular Ca^2+ levels (in words)” value in experiment [3] (vehicle-treated pcDNA3.1-transfected HEK-CaSR cells) is “elevated the intracellular Ca^2+ levels in a concentration-dependent manner”. The “PTH secretion (in words)” value in experiment [4] is “suppressed PTH secretion in a dose-dependent manner”.
